Assays:
recombinant PCSK9 [1] = biological target: T1, recombinant PCSK9 (Homo sapiens, UniProt Q8NBP7); experiment: LDLR Flow (FACS) Assay (% inhibition of recombinant PCSK9); format: cell-based; details: 5.0 ug/mL recombinant PCSK9, HuH7 cells (FIG. 2), read-out: LDLR Flow Assay: % Inhibition of 5.0 ug/mL recombinant PCSK9 @ X compound dose; for inhibition at 1.25 µM: Huh-7, compound dose 1.25 uM; for inhibition at 10 µM: Huh-7, compound dose 10 uM; for inhibition at 0.313 µM: Huh-7, compound dose 0.313 uM; for inhibition at 20 µM: Huh-7, compound dose 20 uM
Method: The cells were incubated in 24-well plates for a total of 6 h in the absence or presence of recombinant PCSK9 protein (final concentration of 5.0 ug/ml), or in the presence of PCSK9 protein mixed with indicated concentration of experimental compound (Cmpd #). After 6 hours, the cells were released from the plate, stained with anti-LDLR antibody, then rinsed, counterstained with DAPI, and then measured by fluorescence activated cell sorting (FACS). The percent recombinant PCSK9 inhibition was calculated as [‘Compound Dose LDLR Fluorescence’−‘5.0 ug/ml PCSK9-treated LDLR Fluorescence’]/[‘No PCSK9 Basal LDLR Fluorescence’−‘5.0 ug/ml PCSK9-treated LDLR Fluorescence’]×100%.
LDLR levels can be measured using flow cytometry or fluorescence activated cell sorting (FACS) using protocols adapted from Benjannet et al., “Effects of the prosegment and pH on the activity of PCSK9: evidence for additional processing events” J Biol Chem. 285(52): 40965-40978 (2010) and “Composition and Methods of Use of Small Molecules as Binding Ligands for the Modulation of Proprotein Convertase Subtilisin/Kexin Type 9 (PCSK9) Protein Activity” (WO2016029037), which are incorporated by reference in their entirety.
Cells, such as HepG2, HuH7, FL83B, or a cell line transfected with a short-hairpin PCSK9 knockdown sequence such as HepG2/shPCSK9, HuH7/shPCSK9, or FL83B/shPCSK9 are plated and cultured at 37° C. for 12-24 h. Culture media is removed and replaced with fresh culture media or culture media plus a predetermined amount of recombinant PCSK9, for example a 10 nM final concentration of PCSK9. Cell culture media can be composed of DMEM (Invitrogen) with 10% fetal bovine serum (Life Technologies) supplemented with penicillin-streptomycin (Life Technologies). Cells are dosed with small molecule test compounds at doses ranging from 0 nM to 100 uM
Following an incubation period of specified length, such as 6 hours, the media is removed and the cells are rinsed three times with a rinse solution (i.e., Dulbecco's phosphate buffered saline (D-PBS, Life Technologies) supplemented with 0.5% bovine serum albumin (BSA, Sigma) and 1 g/L glucose (Sigma)). The fluid is then removed, and cells are released from the plate using TrypLE Express (Life Technologies) per manufacturer's recommend procedures, such as incubation for 5-10 minutes at 37° C. The TyrpLE-Cell suspension is then transferred to 15 mL conical tubes, volume is increased to 2 mL with D-PBS supplemented with 0.5% BSA and […] glucose, and the tubes are centrifuged at 250× gravity for 10 minutes. Following centrifugation, the supernatant is aspirated and the cell pellet is resuspended in 100 uL D-PBS containing 0.5% BSA and […] glucose, and cells are labeled with anti-LDLR antibody per the manufacturer's recommended procedure. The cells are then pelleted by centrifugation, resuspended in 300 uL PBS and counterstained with 4′,6-Diamidino-2-phenylindole (DAPI, Cayman Chemical) as a cell viability marker, other cell viability markers such as 7-aminoactinomycin D (7AAD, Life Technologies) have also been described in the art.
Cells are analyzed for both cell viability marker (dead cells) and LDLR in live cells using a flow cytometer per the manufacturer's operating manual. Cells incubated with small molecule compounds that are inhibitors of PCSK9 will be expected to show increased amounts of LDLR, relative to control (no compound) specimens, and cells incubated with small molecule compounds that are activators of PCSK9 will be expected to show decreased amounts of LDLR relative to control (no compound) specimens.

recombinant PCSK9 [2] = biological target: T1, recombinant PCSK9; experiment: DiI-LDL Uptake Assay (% inhibition of recombinant PCSK9); format: cell-based; details: 2.5 ug/mL recombinant PCSK9, HepG2 cells (FIG. 1), read-out: Uptake Assay: % Inhibition of 2.5 ug/mL recombinant PCSK9 @ X compound dose; for inhibition at 10 µM: compound dose 10 uM; for inhibition at 20 µM: compound dose 20 uM; for inhibition at 5 µM: compound dose 5 uM; for inhibition at 1.25 µM: compound dose 1.25 uM; for inhibition at 2.5 µM: compound dose 2.5 uM
Method: The cells were incubated in a 96-well plate for a total of 16 h in the absence or presence of recombinant PCSK9 (final concentration 2.5 ug/ml) protein alone or recombinant PCSK9 protein pre-mixed with indicated concentration of experimental compounds (Cmpd #). After 16 h, DiI-LDL (final concentration 5 ug/ml) was added to the incubation mixtures. After 4 h, cells are stained with Hoechst 33342 for 30 minutes, then rinsed with phosphate buffered saline, and then a final volume of 100 ul phosphate buffered saline was added to each well. The fluorescence was measured (DiI: excitation at 550 nm and emission at 590 nm; Hoechst: excitation at 355 nm, emission at 460 nm). The percent recombinant PCSK9 inhibition was calculated as [‘Compound Dose DiI Fluorescence’−‘2.5 ug/ml PCSK9-treated DiI Fluorescence’]/[‘No PCSK9 DiI Fluorescence’−‘2.5 ug/ml PCSK9-treated DiI Fluorescence’]×100%.
Cellular DiI-LDL uptake can be measured using protocols adapted from Benjannet et al., “Effects of the prosegment and pH on the activity of PCSK9: evidence for additional processing events” J Biol Chem. 285(52): 40965-40978 (2010) and “Composition and Methods of Use of Small Molecules as Binding Ligands for the Modulation of Proprotein Convertase Subtilisin/Kexin Type 9 (PCSK9) Protein Activity” (WO2016029037), which are incorporated by reference in their entirety.
Cells, such as HepG2, HuH7, FL83B, or a cell line transfected with a short-hairpin PCSK9 knockdown sequence such as HepG2/shPCSK9, HuH7/shPCSK9, or FL83B/shPCSK9 are plated and cultured at 37° C. for 12-24 h. Culture media is removed and replaced with fresh lipoprotein-depleted culture media supplemented with 5 ug/mL of DiI-LDL (Kalen Biomedical) or lipoprotein-depleted culture media supplemented with 5 ug/mL of DiI-LDL plus a predetermined concentration of recombinant PCSK9, for example a 10 nM final concentration of PCSK9. Lipoprotein-depleted culture media can be composed of DMEM (Invitrogen) with 10% lipoprotein-depleted fetal bovine serum (Kalen Biomedical) and supplemented with penicillin-streptomycin (Life Technologies). Cells are dosed with small molecule test compounds at doses ranging from 0 nM to 100 uM.
Following an incubation period of specified length, such as 6 hours, Hoechst 33342 (AnaSpec) stain is added to the cell media per manufacturer's instructions and incubated for a specified length (e.g., 30 minutes). The lipoprotein-depleted media is removed and cells rinsed three times with phosphate buffered saline. A final volume of phosphate buffered saline is added back to the wells. The DiI fluorescence is measured with a plate reader using an exciting wavelength of 550 nm and the resulting emission at 590 nm is measured. The Hoechst stain fluorescence is measured with a plate reader using an exciting wavelength of 355 nm and the resulting emission at 460 nm is measured.
Cells are analyzed by for both Hoechst stain (DNA content) and DiI-LDL fluorescence. Cells incubated with small molecule compounds that are inhibitors of PCSK9 will be expected to show increased amounts of DiI-LDL fluorescence, relative to control (no compound) specimens, and cells incubated with small molecule compounds that are activators of PCSK9 will be expected to show decreased amounts of DiI-LDL fluorescence relative to control (no compound) specimens.

T1 sequence (Q8NBP7 153-692): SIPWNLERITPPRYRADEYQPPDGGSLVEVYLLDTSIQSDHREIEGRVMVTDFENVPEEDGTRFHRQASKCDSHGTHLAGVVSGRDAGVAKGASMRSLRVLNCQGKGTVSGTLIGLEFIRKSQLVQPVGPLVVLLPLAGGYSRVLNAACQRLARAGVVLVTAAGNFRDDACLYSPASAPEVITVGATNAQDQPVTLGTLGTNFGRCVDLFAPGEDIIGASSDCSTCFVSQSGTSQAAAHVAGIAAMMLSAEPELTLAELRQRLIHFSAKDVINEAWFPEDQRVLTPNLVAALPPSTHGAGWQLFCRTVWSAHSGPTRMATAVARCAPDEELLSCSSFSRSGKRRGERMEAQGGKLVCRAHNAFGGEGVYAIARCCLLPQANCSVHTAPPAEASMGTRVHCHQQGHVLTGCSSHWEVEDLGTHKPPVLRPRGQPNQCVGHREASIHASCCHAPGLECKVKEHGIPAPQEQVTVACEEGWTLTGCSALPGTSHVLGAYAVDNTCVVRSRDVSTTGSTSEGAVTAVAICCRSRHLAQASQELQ

Compound: c1ccc(COc2ccc(N3CCNCC3)cc2)cc1 [Compound 1, 1-(4-(benzyloxy)phenyl)piperazine]
- inhibition at 1.25 µM (recombinant PCSK9 [1]): ~16%
- inhibition at 10 µM (recombinant PCSK9 [1]): ~34%
- inhibition at 10 µM (recombinant PCSK9 [2]): > 100%

Compound: O=S(=O)(c1ccccc1)c1ccc(N2CCNCC2)c(F)c1 [Compound 2, 1-(2-fluoro-4-(phenylsulfonyl)phenyl)piperazine]
- inhibition at 1.25 µM (recombinant PCSK9 [1]): ~45%
- inhibition at 5 µM (recombinant PCSK9 [1]; Huh-7, compound dose 5 uM): ~66%
- inhibition at 20 µM (recombinant PCSK9 [2]): > 100%

Compound: c1ccc(Oc2ccc(N3CCNCC3)cc2)cc1 [Compound 3]
- inhibition at 1.25 µM (recombinant PCSK9 [1]): ~20%
- inhibition at 10 µM (recombinant PCSK9 [1]): ~30%
- inhibition at 10 µM (recombinant PCSK9 [2]): > 100%

Compound: Oc1cc(Oc2ccc(N3CCNCC3)cc2)ncn1 [Compound 4, 6-(4-(piperazin-1-yl)phenoxy)pyrimidin-4-ol]
- inhibition at 0.313 µM (recombinant PCSK9 [1]): ~19%
- inhibition at 1.25 µM (recombinant PCSK9 [1]): ~30%

Compound: O=S(=O)(c1ccc(N2CCNCC2)cc1)N1CCCC1 [Compound 5, 1-(4-(pyrrolidin-1-ylsulfonyl)phenyl)piperazine]
- inhibition at 1.25 µM (recombinant PCSK9 [1]): ~10%
- inhibition at 10 µM (recombinant PCSK9 [1]): ~20%

Compound: Fc1ccc(Cc2ccc(N3CCNCC3)cc2)cc1 [Compound 6, 1-(4-(4-fluorobenzyl)phenyl)piperazine]
- inhibition at 1.25 µM (recombinant PCSK9 [1]): ~15%
- inhibition at 10 µM (recombinant PCSK9 [1]): ~40%
- inhibition at 5 µM (recombinant PCSK9 [2]): > 100%

Compound: O=C1CNCCN1c1ccc(Oc2ccccc2)cc1 [Compound 7, 1-(4-phenoxyphenyl)piperazin-2-one]
- inhibition at 1.25 µM (recombinant PCSK9 [1]): ~18%

Compound: c1cc(C2CCNCC2)ccc1OC1CCCCC1 [Compound 8, 4-(4-(cyclohexyloxy)phenyl)piperidine]
- inhibition at 0.313 µM (recombinant PCSK9 [1]): ~15%
- inhibition at 1.25 µM (recombinant PCSK9 [1]): ~25%
- inhibition at 10 µM (recombinant PCSK9 [1]): ~35%
- inhibition at 5 µM (recombinant PCSK9 [2]): > 100%

Compound: c1cc(C2CCNCC2)ccc1OC1CCOCC1 [Compound 9, 4-(4-((tetrahydro-2H-pyran-4-yl)oxy)phenyl)piperidine]
- inhibition at 20 µM (recombinant PCSK9 [1]): ~23%

Compound: O=S(=O)(Nc1ccccc1)c1ccc(N2CCNCC2)cc1 [Compound 10, N-phenyl-4-(piperazin-1-yl)benzenesulfonamide]
- inhibition at 1.25 µM (recombinant PCSK9 [1]): > 10%
- inhibition at 10 µM (recombinant PCSK9 [1]): > 25%
- inhibition at 20 µM (recombinant PCSK9 [1]): > 40%
- inhibition at 20 µM (recombinant PCSK9 [2]): > 100%

Compound: O=C(Nc1ccccc1)c1ccc(N2CCNCC2)cc1 [Compound 11, N-phenyl-4-(piperazin-1-yl)benzamide]
- inhibition at 20 µM (recombinant PCSK9 [2]): ~49%

Compound: O=S(=O)(Nc1ccc2c(c1)CCCC2)c1ccc(N2CCNCC2)cc1 [Compound 12, 4-(piperazin-1-yl)-N-(5,6,7,8-tetrahydronaphthalen-2-yl)benzenesulfonamide]
- inhibition at 1.25 µM (recombinant PCSK9 [1]): ~10%
- inhibition at 10 µM (recombinant PCSK9 [1]): ~25%
- inhibition at 20 µM (recombinant PCSK9 [1]): ~45%
- inhibition at 1.25 µM (recombinant PCSK9 [2]): ~66%
- inhibition at 2.5 µM (recombinant PCSK9 [2]): > 100%

Compound: c1cc(N2CCNCC2)ccc1OC1CCCCC1 [Compound 13, 1-(4-(cyclohexyloxy)phenyl)piperazine]
- inhibition at 0.625 µM (recombinant PCSK9 [1]; Huh-7, compound dose 0.625 uM): ~20%
- inhibition at 10 µM (recombinant PCSK9 [1]): ~40%
- inhibition at 20 µM (recombinant PCSK9 [2]): > 100%

Compound: O=S(=O)(Nc1ccccc1)c1ccc(C2CCNCC2)cc1 [Compound 14, N-phenyl-4-(piperidin-4-yl)benzenesulfonamide]
- inhibition at 20 µM (recombinant PCSK9 [2]): > 100%

Compound: O=S(=O)(Nc1ccc2c(c1)CCCC2)c1ccc(C2CCNCC2)cc1 [Compound 15, 4-(piperidin-4-yl)-N-(5,6,7,8-tetrahydronaphthalen-2-yl)benzenesulfonamide]
- inhibition at 1.25 µM (recombinant PCSK9 [2]): > 50%
- inhibition at 2.5 µM (recombinant PCSK9 [2]): > 100%
